Columns and labels:
[1] = system: Adriamycin (ADR)-resistant human breast cancer cells (MCF-7/ADR); assay: Cytotoxicity against MCF-7/ADR cells; assay type: cell-based; settings: 24 h exposure, mean ± standard error
Experimental: (§1) Three human cancer cell lines, PC-3 (human prostate adenocarcinoma, metastatic), […], were used to test the anti-proliferative activity of β-enaminonitrile (4a–p) using the MTT colorimetric assay at concentrations ranging from 0–100 μM. The representative active cytotoxic substances 4a, 4c, 4d, 4e, 4g, 4i, 4k and 4o were also tested against two normal cell lines, human fetal lung (HFL-1) and human diploid fibroblasts (WI-38), as well as Adriamycin (ADR)-resistant human breast cancer cells (MCF-7/ADR). The reference cytotoxic agents, Vinblastine and Doxorubicin, were used in the tests.
(§2) The tumor cell lines MCF-7, HepG-2, PC-3 MCF-7/ADR, HFL-1 and (WI-38) were obtained from the American Type Culture Collection (ATCC, Rockville, MD, USA). The cells were grown on RPMI-1640 medium supplemented with 10% inactivated fetal calf serum and 50 µg/mL gentamycin. The cells were maintained at 37 ^οC in a humidified atmosphere with 5% CO2 and were subcultured two to three times a week.
(§3) The cytotoxic activity was appraised using the 3-(4,5-dimethylthiazol-2-yl)-2,5-diphenyltetrazolium bromide (MTT) colorimetric assay for the antitumor cell lines, as reported previously, and the ELISA assay for MCF-7/ADR [69].

MCF-7/ADR cells = assay: Cell cycle analysis by flow cytometry (PI staining); assay type: cell-based, human; settings: IC50 values, 24 h
Text: Cancer cells undergo unscheduled cell divisions by the down-regulation of the four cell cycle stages (G1, S, G2 and M); therefore, the development of anticancer agents targeting cell cycle arrest represents an important therapeutic intervention. P-gp breast cancer resistance proteins (BCRP) inhibit the action of anticancer drugs on cell cycle arrest by preventing intercellular drug accumulation. By using flow cytometry and the FACS Calibers, it was possible to examine how the potent-produced compounds (4a, 4c, 4e, 4g and 4i) affected the regulation of cell cycle progression in MCF-7/ADR cells (Becton Dickinson). […] The outcomes of the cell cycle progression give three different results showing compounds with cell cyclic arrest at the G1 phase (4d and 4e), while there were other compounds at the S phase (4a and 4c) and a final compound with cell cycle arrest at both of the G1/S phases (4g and 4i). […] According to the cell cycle analysis, the tested derivatives considerably stopped the MCF-7/ADR cancer cells in the G1/S phase.
Figure 6 Effects of compounds 4a, 4c–4e, 4g and 4i on the cell cycle phases of MCF-7/ADR cells. […] Their DNA content was analyzed using fluorescence flow cytometry. […] The data are expressed as the mean ± SD of three independent experiments in triplicate. Significances are shown in comparison to control cells (* p < 0.001). TEXT PRINTED IN THE PICTURE: (a) DOX.: %DIP G1 63.03% (MCF7/ADR); %DIP G2/M 13.09% (MCF7/ADR); %DIP S 23.88% (MCF7/ADR) | (a) 4a: %DIP G1 41.63% (MCF7/ADR); %DIP G2/M 5.55% (MCF7/ADR); %DIP S 52.82% (MCF7/ADR) | (a) 4c: %DIP G1 52.13% (MCF7/ADR); %DIP G2/M 9.91% (MCF7/ADR); %DIP S 37.96% (MCF7/ADR) | (a) 4d: %DIP G1 59.42% (MCF7/ADR); %DIP G2/M 13.75% (MCF7/ADR); %DIP S 26.83% (MCF7/ADR) | (a) 4e: %DIP G1 67.32% (MCF7/ADR); %DIP G2/M 8.6% (MCF7/ADR); %DIP S 24.08% (MCF7/ADR) | (a) 4g: %DIP G1 59.37% (MCF7/ADR); %DIP G2/M 3.67% (MCF7/ADR); %DIP S 36.96% (MCF7/ADR) | (a) 4i: %DIP G1 5.68% (MCF7/ADR); %DIP G2/M 57.61% (MCF7/ADR); %DIP S 36.71% (MCF7/ADR) DOUBTS OF THE COPYIST ABOUT THIS PICTURE: The print in the histogram insets of panel (a) is very small and blurred; 3, 5, 6, 8 and 9 cannot be told apart with certainty in any value, so all values below are best readings. / DOX., %DIP G1 63.03%: 3s may be 8s / DOX., %DIP G2/M 13.09%: 9 may be 8; 3 may be 5 / DOX., %DIP S 23.88%: 8s may be 3 or 6 / 4a, %DIP G1 41.63%: 6 or 8; 3 or 8 / 4a, %DIP G2/M 5.55%: 5s may be 6 or 3 / 4a, %DIP S 52.82%: 8 may be 3 or 6 / 4c, %DIP G1 52.13%: 3 or 8 / 4c, %DIP G2/M 9.91%: 9s may be 8 / 4c, %DIP S 37.96%: 9 or 8; 6 or 8 / 4d, %DIP G1 59.42%: 9 or 8 / 4d, %DIP G2/M 13.75%: 3 or 8; 5 or 6 / 4d, %DIP S 26.83%: 6, 8 and 3 uncertain / 4e, %DIP G1 67.32%: 6 or 8; 3 or 8 / 4e, %DIP G2/M 8.6%: 8 and 6 uncertain; a further digit may be missing / 4e, %DIP S 24.08%: 8 may be 3 or 6 / 4g, %DIP G1 59.37%: 9 or 8; 3 or 8 / 4g, %DIP G2/M 3.67%: 3 or 8; 6 or 8 / 4g, %DIP S 36.96%: 3, 6 and 9 uncertain / 4i, %DIP G1 5.68%: 5, 6 and 8 uncertain; the value seems to be printed against G1 although a leading digit could be hidden / 4i, %DIP G2/M 57.61%: 5 or 6; 6 or 8 / 4i, %DIP S 36.71%: 3 or 8; 6 or 8 / The untreated control (Cont.) also carries printed percentages (%DIP G1 55.38%, %DIP G2/M 15.01%, %DIP S 29.61%) but was left out because it is not a substance.

human fetal lung (HFL-1) = assay: Cytotoxicity against normal cell line HFL-1; assay type: cell-based; settings: 24 h incubation, mean ± standard error
Experimental: as §1, §2, §3

[2] = system: human diploid fibroblasts (WI-38); assay: Cytotoxicity against normal cell line WI-38; assay type: cell-based; settings: 24 h incubation, mean ± standard error
Experimental: as §1, §2, §3

[3] = system: PC-3 (human prostate adenocarcinoma, metastatic); assay: MTT colorimetric cytotoxicity assay, PC-3; assay type: cell-based; settings: for IC50: Homo sapiens, MTT, 24 h incubation, mean ± standard error; for times more active than Doxorubicin / times more active than Vinblastine: PC-3 cells, ratio of IC50 values
Experimental: as §1, §2, §3

[4] = system: HeLa (cervical cancer cell line); assay: MTT colorimetric cytotoxicity assay, HeLa; assay type: cell-based, human; settings: Homo sapiens, HeLa, 24 h, 24 h incubation, mean ± standard error
Experimental: as §1, §3

[5] = Homo sapiens, NCI/ADR-RES, 24 h

SMILES	IC50 [1, 5]	cell cycle arrest phase (MCF-7/ADR cells)	IC50 (human fetal lung (HFL-1); Homo sapiens, HFL1, 24 h)	IC50 [2]	IC50 ([2]; Homo sapiens, WI-38, 24 h)	IC50 [3]	times more active than Doxorubicin [3]	times more active than Vinblastine [3]	IC50 [4]	IC50 [1]	IC50 (human fetal lung (HFL-1))
N#CC1=C(N)Oc2ccc3ccc(O)cc3c2C1c1ccc(F)cc1F (stereo not shown) [4a, 3-Amino-1-(2,4-Difluorophenyl)-9-Hydroxy-1H-Benzo[f]chromene-2-Carbonitrile]	10.8 ± 0.4 µM	S phase	26.5 ± 0.3 µM	34.3 ± 1.2 µM	19.1 to 30.1 µM	1.1 ± 0.4 µM	1.2 times	6.8 times	2.8 ± 0.3 µM		
N#CC1=C(N)Oc2ccc3ccc(O)cc3c2C1c1cccc(Cl)c1Cl (stereo not shown) [4c, 3-Amino-1-(2,3-Dichlorophenyl)-9-Hydroxy-1H-Benzo[f]chromene-2-Carbonitrile]	8.6 to 11.5 µM	S phase	22.1 ± 0.2 µM		29.4 ± 0.1 µM	2.9 ± 0.7 µM			1.7 ± 0.1 µM	12.4 ± 0.1 µM	
N#CC1=C(N)Oc2ccc3ccc(O)cc3c2C1c1ccc(Cl)cc1Cl (stereo not shown) [4d, 3-Amino-1-(2,4-Dichlorophenyl)-9-Hydroxy-1H-Benzo[f]chromene-2-Carbonitrile]	10.4 ± 0.3 µM	G1 phase	20.1 ± 0.4 µM	39.1 ± 0.2 µM		2 ± 0.7 µM			1.8 ± 0.1 µM		
N#CC1=C(N)Oc2ccc3ccc(O)cc3c2C1c1cc(Cl)ccc1Cl (stereo not shown) [4e, 3-Amino-1-(2,5-Dichlorophenyl)-9-Hydroxy-1H-Benzo[f]chromene-2-Carbonitrile]	10 ± 0.3 µM	G1 phase	24.1 ± 0.3 µM		25.4 ± 1.1 µM	2.1 ± 0.5 µM			2.7 ± 0.6 µM		
N#CC1=C(N)Oc2ccc3ccc(O)cc3c2C1c1ccc(Cl)c(Cl)c1 (stereo not shown) [4g, 3-Amino-1-(3,4-Dichlorophenyl)-9-Hydroxy-1H-Benzo[f]chromene-2-Carbonitrile]	11.5 ± 0.4 µM	G1/S phases	27.4 ± 0.1 µM		26.3 ± 0.2 µM	2.4 ± 0.1 µM			2.2 ± 0.2 µM		
N#CC1=C(N)Oc2ccc3ccc(O)cc3c2C1c1cc(Br)cc(Br)c1 (stereo not shown) [4i, 3-Amino-1-(3,5-Dibromophenyl)-9-Hydroxy-1H-Benzo[f]chromene-2-Carbonitrile]	8.6 ± 0.7 µM	G1/S phases	19.1 to 30.1 µM		29.2 ± 1.2 µM	0.8 ± 0.1 µM	1.6 times	9.4 times	3.4 ± 0.6 µM		38.1 ± 0.4 µM
